Assay [1] concerns the target T1, R98H mutant of alpha-sarcoglycan (Homo sapiens, UniProt Q16586, R98H).
T1 construct: expressed in transfected cells; host or cells: HEK293
T1 sequence (Q16586 24-387 R98H): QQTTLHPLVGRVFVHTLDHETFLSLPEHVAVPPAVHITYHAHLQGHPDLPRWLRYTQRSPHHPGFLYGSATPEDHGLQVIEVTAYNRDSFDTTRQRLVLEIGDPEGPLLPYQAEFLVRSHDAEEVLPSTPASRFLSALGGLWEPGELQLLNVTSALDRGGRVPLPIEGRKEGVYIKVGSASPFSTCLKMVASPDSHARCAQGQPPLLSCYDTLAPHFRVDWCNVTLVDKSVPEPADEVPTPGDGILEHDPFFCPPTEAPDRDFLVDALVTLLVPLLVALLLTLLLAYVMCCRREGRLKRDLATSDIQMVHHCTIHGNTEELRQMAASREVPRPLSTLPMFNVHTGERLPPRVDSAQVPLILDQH
As to the kind of experiment: Confocal immunofluorescence, membrane localization of R98H alpha-sarcoglycan in HEK293 cells. Format: cell-based. As to conditions: HEK293, 24 hours. The protocol:
(§1) The cellular localization of either the V247M or R98H mutants, upon corrector treatments, has been verified by confocal immunofluorescence.
In the experiment reported in FIG. 8, HEK 293 cells expressing the R98H mutant have been treated for 24 hours with either Compound H (15 μM), Compound I (10 μM), Compound Q (10 μM), Compound A (2 μM) or the vehicle DMSO at 1% o concentration used as negative control. By comparison, cells expressing the wild type form of α-sarcoglycan have also been used. At the end of treatments, not permeabilized cells were incubated with a monoclonal antibody specific for an extracellular epitope of α-sarcoglycan in order to mark only the membrane resident α-sarcoglycan.
In the experiment reported in FIG. 9, HEK 293 cells expressing the R98H mutant have been treated for 24 hours with either two different concentration of Compound R (2.5 and 5 μM), or the vehicle DMSO at 1‰ concentration used as negative control. By comparison, cells expressing the wild type form of α-sarcoglycan have also been used. At the end of treatments, not permeabilized cells were incubated with a monoclonal antibody specific for an extracellular epitope of α-sarcoglycan in order to mark only the membrane resident α-sarcoglycan.

In the next assay the target is T2, R164H mutant of SERCA1 (Bos taurus, UniProt Q0VCY0, R164H).
T2 construct: expressed in transfected cells; host or cells: HEK 293
T2 sequence (Q0VCY0 whole entry R164H): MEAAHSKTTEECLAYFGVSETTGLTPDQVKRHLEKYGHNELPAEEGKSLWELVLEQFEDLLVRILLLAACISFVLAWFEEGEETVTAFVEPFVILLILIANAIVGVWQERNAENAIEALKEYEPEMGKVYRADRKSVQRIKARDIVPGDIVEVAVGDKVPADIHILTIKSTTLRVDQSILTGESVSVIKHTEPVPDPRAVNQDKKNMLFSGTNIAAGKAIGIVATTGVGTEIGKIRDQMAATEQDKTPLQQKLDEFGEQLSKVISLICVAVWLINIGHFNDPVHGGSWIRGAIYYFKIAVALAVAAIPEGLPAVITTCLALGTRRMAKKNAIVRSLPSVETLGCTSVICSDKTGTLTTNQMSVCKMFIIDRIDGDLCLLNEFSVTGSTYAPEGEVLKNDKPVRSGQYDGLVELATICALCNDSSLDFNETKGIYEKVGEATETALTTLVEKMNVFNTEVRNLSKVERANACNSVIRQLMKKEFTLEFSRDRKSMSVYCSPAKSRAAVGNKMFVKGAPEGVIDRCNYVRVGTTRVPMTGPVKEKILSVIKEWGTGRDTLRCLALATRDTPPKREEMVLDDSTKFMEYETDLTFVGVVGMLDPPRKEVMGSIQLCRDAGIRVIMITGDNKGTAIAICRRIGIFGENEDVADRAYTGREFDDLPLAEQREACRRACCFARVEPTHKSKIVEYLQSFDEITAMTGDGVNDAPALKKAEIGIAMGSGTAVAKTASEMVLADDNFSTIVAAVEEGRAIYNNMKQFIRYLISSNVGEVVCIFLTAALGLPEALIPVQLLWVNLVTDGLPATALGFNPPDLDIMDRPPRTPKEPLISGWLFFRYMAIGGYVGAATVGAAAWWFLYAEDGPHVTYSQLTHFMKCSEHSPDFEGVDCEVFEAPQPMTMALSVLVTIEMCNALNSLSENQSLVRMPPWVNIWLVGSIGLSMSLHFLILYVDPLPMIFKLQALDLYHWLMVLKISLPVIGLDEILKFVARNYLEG
As to the kind of experiment: Western blot rescue of R164H mutant of SERCA1 in HEK293 cells. Format: cell-based, bovine. As to conditions: HEK293, 24 hours, relative to wild type. The procedure: In FIG. 3 are reported the results obtained with HEK 293 cells expressing the R164H mutant of SERCA1 treated for 24 hours with either Compound C 5 μM, Compound B 10 μM, Compound E 10 μM, compound F 10 μM, Compound A 2 μM, compound D 10 μM, MG132 (proteasome inhibitor) 10 μM, used as positive control or the vehicle DMSO at 1‰ concentration, used as negative control. At the end of treatments, cells were lysed and total protein resolved by SDS-PAGE. Western blotting analysis has been performed by using SERCA1 specific antibody and β-actin specific antibody, to normalize loaded proteins. In the upper panel of FIG. 3 is reported a representative Western blotting experiment. The expression of SERCA1 in different samples has been determined by densitometric analysis and indicated as percentage of SERCA 1 content present in wild type expressing cells treated with DMSO.
In FIG. 10 is reported the content of SERCA1 protein present in HEK 293 cells transfected with the R164H mutant of SERCA1 and treated for 24 hours with either Compound H 15 μM, Compound I 10 μM, compound Q 10 μM, Compound R 5 μM, Compound S 15 μM, Compound T 15 μM or the vehicle DMSO at 1‰ concentration, used as negative control. Cells expressing the wild type form of SERCA1 have also been used for comparison. At the end of treatments, cells were lysed and total protein resolved by SDS-PAGE. Western blotting analysis has been performed by using SERCA1 specific antibody and β-actin specific antibody, to normalize loaded proteins. The expression of SERCA1 in different samples has been determined by densitometric analysis and indicated as percentage of SERCA 1 content present in wild type expressing cells. The graph of FIG. 10 reports the average values (+/− standard error) of at least three independent experiments.

Assay [2] deals with T3, V247M mutant of alpha-sarcoglycan (Homo sapiens, UniProt Q16586, V247M).
T3 construct: expressed in transfected cells; host or cells: HEK 293
T3 sequence (Q16586 24-387 V247M): T1 sequence (Q16586 24-387 R98H) with H75R, V224M
As to the kind of experiment: Confocal immunofluorescence, membrane localization of V247M alpha-sarcoglycan in HEK293 cells. As to conditions: FIG. 2; HEK293, 24 hours; E 10 μM, D 10 μM, MG132 positive control; not permeabilized cells. The format is cell-based. The protocol:
as §1
In the experiment reported in FIG. 2, HEK 293 cells expressing the V247M mutant have been treated for 24 hours with either Compound E (10 μM) or Compound D (10 μM), MG132 (positive control) or DMSO at 1‰ concentration (negative control). At the end of treatments, not permeabilized cells were incubated with a monoclonal antibody specific for an extracellular epitope of α-sarcoglycan in order to mark only the membrane resident α-sarcoglycan. By comparison, cells expressing the wild type form of α-sarcoglycan have also been used.

The mark [3] stands for this setting: FIG. 8, H 15 μM, I 10 μM, Q 10 μM, A 2 μM.
The mark [4] stands for this setting: FIG. 3, C 5 μM, B 10 μM, E 10 μM, F 10 μM, A 2 μM, D 10 μM.
Where [5] appears, read: FIG. 10, H 15 μM, I 10 μM, Q 10 μM, R 5 μM, S 15 μM, T 15 μM.

Molecules are shown by their SMILES. Changes are numbered by the printed parent chain.

Turning to `COc1ccc(Cl)cc1Nc1nc(-c2sc(NC(=O)C(C)(C)C)nc2C)cs1` [Compound A, N-(2-(5-chloro-2-methoxyphenylamino)-4′-methyl-4,5′-bithiazol-2′-yl)pivalamide], the “plasma membrane localization of R98H alpha-sarcoglycan mutant” value in assay [1] (setting [3]) was “promote the correct membrane localization”. The “SERCA1 protein level (western blot, densitometry), rescue of R164H mutant” value (“SERCA1 protein level” below) at R164H mutant of SERCA1 (setting [4]) is on record as “promote the rescue”. `COc1ccc(Cl)cc1Nc1nc(-c2sc(NC(=O)c3ccccc3)nc2C)cs1` [Compound E, N-[2-(5-Chloro-2-methoxy-phenylamino)-4′-methyl-[4,5′]bithiazolyl-2′-yl]-benzamide]: the “plasma membrane localization of V247M alpha-sarcoglycan mutant” value in assay [2] is given as “promoted the correct plasma membrane localization”. Moreover, the “SERCA1 protein level” value at R164H mutant of SERCA1 (setting [4]) is on record as “promote the rescue”. Take `O=S(=O)(c1ccc(Cl)cc1)N1CCN(c2ccnc3cc(Cl)ccc23)CC1` [Compound F, 7-chloro-4-(4-(4-chlorophenylsulfonyl)piperazin-1-yl)quinoline]: at R164H mutant of SERCA1 (setting [4]), the “SERCA1 protein level” value was “promote the rescue”. Turning to `Cc1cc(C)c2c(C)cc(Nc3ccccc3)nc2c1` [Compound H, 4,5,7-trimethyl-N-phenylquinolin-2-amine], the “plasma membrane localization of R98H alpha-sarcoglycan mutant” value in assay [1] (setting [3]) is reported as “promote the correct membrane localization”. Further, the “SERCA1 protein level” value at R164H mutant of SERCA1 (setting [5]) was “promote the rescue”. For `Cc1cc(Nc2ccc(Br)cc2)nc2ccccc12` [Compound I, N-(4-bromophenyl)-4-methylquinolin-2-amine] the same measures were “promote the correct membrane localization” and “promote the rescue”. For `CC(=O)c1cccc(Nc2nc(-c3sc(NC(=O)c4ccccc4)nc3C)cs2)c1` [Compound Q, N-(2-(3-acetylphenylamino)-4′-methyl-4,5′-bithiazol-2′-yl)-benzamide] the same measures were “promote the correct membrane localization” and “promote the rescue”. Turning to `COc1ccccc1Nc1nc(-c2sc(NC(=O)c3ccccc3)nc2C)cs1` [Compound R, N-(2-(2-methoxyphenylamino)-4′-methyl-4,5′-bithiazol-2′-yl)-benzamide], the “plasma membrane localization of R98H alpha-sarcoglycan mutant” value in assay [1] (FIG. 9, Compound R 2.5 and 5 μM) is on record as “promoted the correct plasma-membrane localization”. Also, at R164H mutant of SERCA1 (setting [5]), the “SERCA1 protein level” value is reported as “promote the rescue”.

In the case of `C=Cc1ccc(-c2csc(Nc3ccccc3)n2)cc1` [Compound S, N-phenyl-4-(4-vinylphenyl)thiazol-2-amine], the “SERCA1 protein level” value at R164H mutant of SERCA1 (setting [5]) is on record as “promote the rescue”. For the molecule `COc1ccc2nc(Nc3nc(=O)c(C)c(C)[nH]3)nc(C)c2c1` [Compound T, 2-(6-methoxy-4-methylquinazolin-2-ylamino)-5,6-dimethylpyrimidin-4(1H)-one], on R164H mutant of SERCA1 (setting [5]), the “SERCA1 protein level” value is “promote the rescue”.

For the origin of these results see US9987256B2, “CFTR corrector for the treatment of genetic disorders affecting striated muscle” (UNIVERSITA' DEGLI STUDI DI PADOVA, priority 2012, dated 2018).
